# Experiments:
# glucocorticoid receptor = glucocorticoid receptor (Homo sapiens, UniProt P04150); details: concentration ≦10 μM; A549 cells, 10 ng/mL PMA, 7 h
# Description: The AP-1 assay is a cell-based luciferase reporter assay. A549 cells, which contain endogenous glucocorticoid receptor, were stably transfected with an AP-1 DNA binding site attached to the luciferase gene. Cells are then grown in RPMI+10% fetal calf serum (charcoal-treated)+Penicillin/Streptomycin with 0.5 mg/mL geneticin. Cells are plated the day before the assay at approximately 40000 cells/well. On assay day, the media is removed by aspiration and 20 μL assay buffer (RPMI without phenol red+10% FCS (charcoal-treated)+Pen/Strep) is added to each well. At this point either 20 μL assay buffer (control experiments), the compounds of the present invention (“test compounds”) (dissolved in DMSO and added at varying concentrations) or dexamethasome (100 nM in DMSO, positive control) are added to each well. The plates are then pre-incubated for 15 min at 37° C., followed by stimulation of the cells with 10 ng/mL PMA. The plates are then incubated for 7 h at 37° C. after which 40 μL luciferase substrate reagent is added to each well. Activity is measured by analysis in a luminometer as compared to control experiments treated with buffer or dexamethasome.
# AR = target: T1, AR (Rattus norvegicus, UniProt P15207); details: castrated rats
# T1 sequence (P15207 1-902): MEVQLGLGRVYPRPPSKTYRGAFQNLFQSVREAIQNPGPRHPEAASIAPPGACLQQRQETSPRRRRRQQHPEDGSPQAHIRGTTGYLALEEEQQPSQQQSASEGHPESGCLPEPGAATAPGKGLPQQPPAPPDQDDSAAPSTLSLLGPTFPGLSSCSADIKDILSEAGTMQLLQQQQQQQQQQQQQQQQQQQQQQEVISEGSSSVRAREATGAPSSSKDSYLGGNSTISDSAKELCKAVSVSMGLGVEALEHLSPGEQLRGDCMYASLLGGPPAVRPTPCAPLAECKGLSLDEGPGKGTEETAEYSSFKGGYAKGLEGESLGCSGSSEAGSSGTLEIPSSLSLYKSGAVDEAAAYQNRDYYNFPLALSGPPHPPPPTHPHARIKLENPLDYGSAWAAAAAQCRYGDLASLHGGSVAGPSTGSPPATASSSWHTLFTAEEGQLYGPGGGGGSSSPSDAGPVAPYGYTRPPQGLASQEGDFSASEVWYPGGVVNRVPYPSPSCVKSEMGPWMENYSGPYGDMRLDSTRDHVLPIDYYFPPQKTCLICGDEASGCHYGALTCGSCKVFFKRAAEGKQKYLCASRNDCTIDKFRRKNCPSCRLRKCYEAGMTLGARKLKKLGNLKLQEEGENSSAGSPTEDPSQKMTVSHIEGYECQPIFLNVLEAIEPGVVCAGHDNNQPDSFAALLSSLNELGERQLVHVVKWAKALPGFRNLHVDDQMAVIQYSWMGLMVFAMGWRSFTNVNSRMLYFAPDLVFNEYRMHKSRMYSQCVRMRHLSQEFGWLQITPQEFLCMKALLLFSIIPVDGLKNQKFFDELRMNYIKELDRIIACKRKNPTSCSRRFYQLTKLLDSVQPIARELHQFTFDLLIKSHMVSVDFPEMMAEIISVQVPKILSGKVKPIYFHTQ
# Text: The activity of compounds of the present invention as AR agonists was investigated in an immature male rat model, a recognized test of anabolic effects in muscle and sustaining effects in sex organs for a given compound, as described in L. G. Hershberger et al., Proc. Soc. […] Biol. Med., 83, 175 (1953); B. L. Beyler et al, “Methods for evaluating anabolic and catabolic agents in laboratory animals”, J. Amer. Med. Women's Ass., 23, 708 (1968); H. Fukuda et al., “Investigations of the levator ani muscle as an anabolic steroid assay”, Nago Dai. Yak. Ken. Nem. 14, 84 (1966) the disclosures of which are herein incorporated by reference.
# The basis of this assay lies in the well-defined action of androgenic agents on the maintenance and growth of muscle tissues and sexual accessory organs in animals and man. […] J. Anat. […] Ital. Biol. Sper. […] II. […] Ital. Biol. Sper. 42, 1600 (1966); A. Boris et al., Steroids 15, 61 (1970). As described above, the effects of androgens on maintenance of male sexual accessory organs, such as the prostate and seminal vesicles, is well described. Castration results in rapid involution and atrophy of the prostate and seminal vesicles. This effect can be reversed by exogenous addition of androgens. […]
# wild type AR = details: read-out: Kd for [3H]-DHT; MDA 453 cells (wild type AR), Scatchard analysis
# Text: For the saturation analysis, the difference between the total binding and the non-specific binding, was defined as specific binding. […] See e.g. D. Rodbard, Mathematics and statistics of ligand assays: an illustrated guide: In: J. Langon and J. J. Clapp, eds., Ligand Assay, Masson Publishing U.S.A., Inc., New York, pp. 45-99, (1981), the disclosure of which is herein incorporated by reference.
# Two replicates were used for each sample.
# [formula] After correcting for non-specific binding, IC50 values were determined. […] C2C12 Mouse Myoblast Transactivation Assay
# glucocorticoid receptor, sequence (P04150 whole entry): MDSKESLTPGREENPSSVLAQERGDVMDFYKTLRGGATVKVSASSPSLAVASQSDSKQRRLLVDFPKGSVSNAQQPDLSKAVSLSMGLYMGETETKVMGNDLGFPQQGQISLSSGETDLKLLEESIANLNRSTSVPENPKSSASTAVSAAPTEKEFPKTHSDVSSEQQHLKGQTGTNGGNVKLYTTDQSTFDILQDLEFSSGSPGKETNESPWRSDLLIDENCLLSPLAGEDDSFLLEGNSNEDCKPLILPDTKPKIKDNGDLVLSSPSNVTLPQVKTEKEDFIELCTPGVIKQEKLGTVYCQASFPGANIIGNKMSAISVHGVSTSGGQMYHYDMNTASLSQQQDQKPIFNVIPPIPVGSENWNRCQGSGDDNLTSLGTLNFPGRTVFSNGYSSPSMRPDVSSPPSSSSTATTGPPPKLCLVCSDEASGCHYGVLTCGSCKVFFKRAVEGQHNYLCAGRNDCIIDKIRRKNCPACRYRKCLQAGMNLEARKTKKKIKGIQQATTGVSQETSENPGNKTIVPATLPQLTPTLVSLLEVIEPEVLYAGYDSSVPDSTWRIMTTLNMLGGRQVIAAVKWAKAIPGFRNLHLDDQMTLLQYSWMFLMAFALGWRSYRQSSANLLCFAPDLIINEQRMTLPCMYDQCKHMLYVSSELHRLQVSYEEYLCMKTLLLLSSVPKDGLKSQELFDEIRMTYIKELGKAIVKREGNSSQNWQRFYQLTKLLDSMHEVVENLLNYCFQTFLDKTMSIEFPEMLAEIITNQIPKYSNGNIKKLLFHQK
compound,measurement,setting,value
C[C@@H]1C[C@H]2[C@@H]3CCC4=CC(=O)C=C[C@]4(C)[C@@]3(F)[C@@H](O)C[C@]2(C)[C@@]1(O)C(=O)CO [dexamethasone],% inhibition of the AP-1 reporter system vs buffer control with PMA,glucocorticoid receptor,65%
"CCC(=O)O[C@H]1CC[C@H]2[C@@H]3CCC4=CC(=O)CC[C@]4(C)[C@H]3CC[C@]12C [TP, testosterone propionate]",EC50 (increase in organ weight),AR,~0.03 mg
same,potency relative to free T,AR; organ weight increase,10-30 fold
tritiated dihydrotestosterone [[^3H]-DHT],Kd,wild type AR,0.7 nM

# From patent US7732480B2, “Bicyclic compounds as modulators of androgen receptor function and method” (Bristol-Myers Squibb Company, priority 2004, dated 2010)
